Laboratory results reported in US11905553B2, “Method for nucleic acid amplification” (ST. JUDE CHILDREN'S RESEARCH HOSPITAL, INC., priority 2018, dated 2024).
“Also recorded” adds a separate entry of the source.

Experiments:
[1] = test system: leukemia cells; clone harboring an activating KRAS mutation; assay: Leukemia cells in culture exposed to increasing concentrations of standard ALL chemotherapy drugs, bulk sequencing of clones; type: cell-based, human; conditions: for sensitivity of the clone harboring an activating KRAS mutation: pediatric ALL sample in culture, bulk sequencing (FIG. 7)
Text: Single-cell exome sequencing of individual leukemia cells harboring an ETV6-RUNX1 translocation has been performed, measuring approximately 200 coding mutations per cell, only 25 of which have been present in enough cells to be detected with standard bulk sequencing in that patient. The mutation load per cell has then been incorporated with other known features of this type of leukemia, such as the replication-associated mutation rate (1 coding mutation/300 cell divisions), the time from initiation to diagnosis (4.2 years), and the population size at the time of diagnosis (100 billion cells) to create an in silico simulation of the development of the disease. It has been unexpectedly discovered that even in what has been thought to be a genetically simple cancer such as pediatric ALL, there are an estimated 330 million clones with distinct coding mutation profiles at the time of diagnosis in that patient. […] Accordingly, methods are provided for enhancing the sensitivity of detection so that clones that make up at least 0.01% (1:10,000) of the cells (box B) can be detected, as this is the stratum in which most resistant disease that causes relapse is hypothesized to reside.
Given such a massive population genetic diversity, it has been hypothesized that there are clones that are more resistant to treatment within a given patient. To test that hypothesis, the sample is placed in culture and the leukemia cells are exposed to increasing concentrations of standard ALL chemotherapy drugs. […] This approach also employed bulk sequencing of the treated samples. The use of single-cell DNA sequencing in some instances allows a determination of the diversity and clonotypes of the expanding populations.

[2] = test system: Umbilical cord blood cells that express the stem/progenitor marker CD34; assay: Direct measurement of environmental mutagenicity (DMEM): exposed single cells, PTA and single-cell sequencing; type: cell-based, human; conditions: for enrichment of variants in DNase I hypersensitive (DH) sites: ENU-exposed CD34+ cells vs Roadmap Epigenomics DH sites (FIG. 12D, 12E)
Text: PTA was used to conduct a novel mutagenicity assay that provides a framework for performing high-resolution, genome wide human toxicogenomics studies. Previous studies such as the Ames test, relies on bacterial genetics to make measurements that are assumed to be representative of human cells while only providing limited information on the mutation number and patterns induced in each exposed cell. To overcome these limitations, a human mutagenesis system “direct measurement of environmental mutagenicity (DMEM)” was developed, wherein single human cells was exposed to an environmental compound, isolated as single cells, and subjected to single-cell sequencing to identify the new mutations induced in each cell.
Umbilical cord blood cells that express the stem/progenitor marker CD34 were exposed to increasing concentrations of the direct mutagen N-ethyl-N-nitrosourea (ENU).
ENU (CAS 759-73-9) and D-mannitol (CAS 69-65-8) were put into solution at their maximal solubility. Fresh anticoagulant-treated umbilical cord blood (CB) was obtained from St. Louis Cord Blood Bank. CB was diluted 1:2 with PBS and mononuclear cells (MNCs) were isolated by density gradient centrifugation on Ficoll-Paque Plus according to manufacturer's instructions. CB MNCs expressing CD34 were then immunomagnetically selected using the human CD34 microbead kit and magnetic cell sorting (MACS) system as per the manufacturer. Cell count and viability were assessed using the Luna FL cell counter. CB CD34+ cells were seeded at a density of 2.5×10^4 cells/mL in StemSpan SFEM supplemented with 1×CD34+ Expansion supplement, 100 units/mL of penicillin, and 100 ug/mL of streptomycin where they expanded for 96 hours before proceeding to mutagen exposure.
Expanded cord blood CD34+ cells were cultured in StemSpan SFEM supplemented with 1×CD34+ Expansion Supplement, 100 units/mL of penicillin, and 100 ug/mL of streptomycin. The cells were exposed to ENU at concentrations of 8.54, 85.4, and 854 uM, D-mannitol at 1152.8, and 11528 uM, or 0.9% sodium chloride (vehicle control) for 40 hours. Single-cell suspensions from drug-treated cells and vehicle control samples were harvested and stained for viability as described above. Single cell sorts were carried out as described above. PTA was performed and libraries were prepared using a simplified and improved protocol as per the general methods of the methods described herein, and Example 2.
Data acquired from cells in the DMEM experiments were trimmed using Trimmomatic, aligned to GRCh38 using BWA, and further processed using GATK 4.0.1 best practices without deviation from the recommended parameters. Genotyping was performed using HaplotypeCaller where joint genotypes were again filtered using standard parameters. […] The trinucleotide context of each SNV was determined by extracting the surrounding bases from the reference genome using bedtools. Mutation counts and context were visualized using ggplot2 and heatmap2 in R.
To determine whether mutations were enriched in DNase I hypersensitivity sites (DHS) in CD34+ cells, the proportion of SNVs in each sample that overlap with DHS sites from 10 CD34+ primary cell datasets produced by the Roadmap Epigenomics Project were calculated. DHS sites were extended by 2 nucleosomes, or 340 bases in either direction. Each DHS dataset was paired with a single cell sample where we determined the proportion of the human genome with at least 10× coverage in that cell which overlapped with a DHS, which was compared to the proportion of SNVs that were found within the covered DHS sites.

[3] = test system: mice; conditions: limited sequencing of target genes; cited from earlier work

COc1cccc2c1C(=O)c1c(O)c3c(c(O)c1C2=O)C[C@@](O)(C(C)=O)C[C@@H]3O[C@H]1C[C@H](N)[C@H](O)[C@H](C)O1 [daunorubicin]
sensitivity of the clone harboring an activating KRAS mutation [1]: more sensitive; also recorded: killed

asparaginase
behaviour of the clone harboring an activating KRAS mutation ([1]; lowest dose of asparaginase, pediatric ALL sample in culture (FIG. 7)): continued to expand

C[C@]12C=CC(=O)C=C1CC[C@@H]1[C@@H]2[C@@H](O)C[C@@]2(C)[C@H]1CC[C@]2(O)C(=O)CO [prednisolone]
sensitivity of the clone harboring an activating KRAS mutation [1]: more sensitive; also recorded: killed

CCN(N=O)C(N)=O [ENU, N-ethyl-N-nitrosourea]
mutation number of each cell ([2]; ENU 8.54, 85.4 and 854 uM, 40 hours, cord blood CD34+ cells (FIG. 12A)): dose-dependent increase in mutation number of each cell
type of base changes induced ([2]; ENU-exposed CD34+ cells (FIG. 12B)): the most common mutations are T to A (A to T), T to C (A to G), and C to T (G to A); also recorded: C to G (G to C) transversion appears to be rare
trinucleotide context of the SNVs ([2]; ENU-exposed CD34+ cells (FIG. 12C)): cytosine mutagenesis appears to be rare when cytosine is followed by guanine; also recorded: most thymine variants occur where adenine is present before thymine
genomic feature annotation of the variants relative to the genome ([2]; ENU-exposed CD34+ cells (FIG. 12F)): not significantly different; also recorded: No specific enrichment was seen in specific annotations
enrichment of variants in DNase I hypersensitive (DH) sites [2]: no enrichment of cytosine variants in DNase I hypersensitivity sites was observed; also recorded: No significant enrichment in variant locations at DH sites was identified
enrichment of variants in DNase I hypersensitive (DH) sites ([2]; listed as N-ethyl-N-nitrosourea): No significant enrichment of cytosine variants was observed
preference of base changes [3]: preference for T to A (A to T), T to C (A to G), and C to T (G to A) changes
